Measured values taken from PubChem BioAssay AID2060614 (Molecular Pharmacology Branch, DTP, NCI, 2025).
“And” between values parts separate entries of the source, which are not always exact repeats. Equal entries are not always repeated. One block for each compound: values may come before it.

System: 598228-144-R-J1-PDC complex spheroids, viability
Experiment: Anticancer human tumor 598228-144-R-J1-PDC patient-derived serous endometrial adenocarcinoma cell line growth inhibition [CLK]
Settings: for viability, T/C: stronger effect = lower value
Source text: A high-throughput screen of multi-cell type tumor spheroids was designed to identify active combinations of […] and targeted small molecules. Complex spheroids include a stromal component modeled by human endothelial cells (HUVEC) and fibroblasts modeled by human mesenchymal stem cells (MSCs). The concentration ranges selected for each drug and investigational agent were based upon clinically achievable concentrations if the clinical Cmax of the agent was known.
Compounds. The drugs and investigational agents: cirtuvivint (SM08502; NSC835563), CC-671 (NSC850746), vemurafenib (NSC761431), tapotoclax (NSC804041), sotorasib (NSC818433), adagrasib (NSC831453), MRTX-1133 (NSC836407), BAY2416964 (NSC825713), copanlisib (NSC816437), inavolisib (NSC800729), abemaciclib (NSC768073), osimertinib (NSC779217), entinostat (NSC756642), eltanexor (KPT-8602, NSC794443), venetoclax (NSC766270), ceralasertib (NSC777638), bortezomib (NSC756655), olaparib (NSC753686), talazoparib (NSC767125), alisertib (NSC759677), peposertib (NSC802822), gemcitabine (NSC613327), 5-fluorouracil (NSC19893), SN-38 (NSC673596), oxaliplatin (NSC266046), paclitaxel (NSC125973), and doxorubicin (NSC123127), were obtained from the National Cancer Institute (NCI) Developmental Therapeutics Program Chemical Repository. The FDA-approved anticancer drug set is available from the Developmental Therapeutics Program at https://dtp.cancer.gov/organization/dscb/obtaining/available plates.htm. […] The stock solutions were prepared in dimethyl sulfoxide (DMSO, Sigma-Aldrich, St. Louis, MO, cat. D2650), except for the platinum complexes which were prepared in saline (Quality Biological, Gaithersburg, MD, cat. 114-055-101), at 800-fold the tested concentration and stored at -70 degrees C prior to their use. All drugs and investigational agents were tested over a range starting from a high concentration at or near the clinical Cmax and decreasing in half-log increments. If the clinical Cmax for an agent had not been determined, the highest concentration tested was 10 microM.
Cell Culture. All cells were maintained in an incubator at 37 degrees C and 5% CO2 with 95% humidity. The PDC lines were cultured according to standard operating procedures established by the NCI PDMR. Briefly, all PDCs were thawed and cultured in Matrigel-coated flasks prepared with a working solution of 1X Ham's F-12 nutrient mix, without supplementation (Invitrogen, Waltham, MA, cat. 11765054), 100 U/mL penicillin-streptomycin (Invitrogen, cat. 15140122), and 2.5% Matrigel (Corning Inc., Corning, NY, cat. 354248) for the first three passages. The 947758-054-R-J2-PDC line was cultured in 6B/Colon 1A media, which includes advanced DMEM/F-12 (Thermo Fisher Scientific, cat. 12634028), 10 mM HEPES (Thermo Fisher Scientific, cat. 15630080), 1X GlutaMAX supplement (Thermo Fisher Scientific, cat. 35050061), 0.1 mg/mL primocin (InvivoGen, cat. ant-pm-2), 10% defined fetal bovine serum, heat inactivated (HyClone Laboratories Inc., cat. SH30070.03HI), 1.25 mM N-Acetyl-L-cysteine (Sigma-Aldrich, cat. A9165), 10 mM nicotinamide (Sigma-Aldrich, cat. N0636), 1X B-27 supplement (Thermo Fisher Scientific, cat. 17504044), 1X N-2 supplement (Thermo Fisher Scientific, cat. 17502048), and 10 microM Y-27632 dihydrochloride (Tocris Bioscience, cat. 1254). The 876862-298-R-J1-PDC was cultured in 6E media, which includes all 6B/Colon 1A media components plus 50% L-WRN conditioned media (ATCC, cat. CRL-3276), 50 ng/mL recombinant human EGF recombinant protein (hEGF; Thermo Fisher Scientific, cat. PHG0311), 10 ng/mL recombinant human fibroblast growth factor 10 (hGFG-10; PeproTech, cat. 100-26), 1 ng/mL recombinant human fibroblast growth factor 2 (hFGF-2; PeproTech, cat. 100-18B), and 1 µM prostaglandin E2 (PGE2; Tocris, cat. 2296). The 227483-062-R1-J1-PDC line was cultured in Panc media, containing all 6E components except hFGF-2, with the addition of 500 nM SB-431542 (Selleckchem, cat. S1067) and 10 nM gastrin (Tocris, cat. 3006). […]

[1] = curve of first compound, second compound 0.0316 µM
[2] = curve of first compound, second compound 0.1 µM
[3] = curve of first compound, second compound 0.316 µM
[4] = curve of first compound, second compound 1 µM
[5] = curve of first compound, second compound 3.16 µM
[6] = curve of first compound, second compound 10 µM
[7] = second compound 0.0316 µM, first compound 0.0316 µM
[8] = second compound 0.0316 µM, first compound 0.1 µM
[9] = second compound 0.0316 µM, first compound 0.316 µM
[10] = second compound 0.0316 µM, first compound 1 µM
[11] = second compound 0.0316 µM, first compound 3.16 µM
[12] = second compound 0.0316 µM, first compound 10 µM
[13] = second compound 0.1 µM, first compound 0.0316 µM
[14] = second compound 0.1 µM, first compound 0.1 µM
[15] = second compound 0.1 µM, first compound 0.316 µM
[16] = second compound 0.1 µM, first compound 1 µM
[17] = second compound 0.1 µM, first compound 3.16 µM
[18] = second compound 0.1 µM, first compound 10 µM
[19] = second compound 0.316 µM, first compound 0.0316 µM
[20] = second compound 0.316 µM, first compound 0.1 µM
[21] = second compound 0.316 µM, first compound 0.316 µM
[22] = second compound 0.316 µM, first compound 1 µM
[23] = second compound 0.316 µM, first compound 3.16 µM
[24] = second compound 0.316 µM, first compound 10 µM
[25] = second compound 1 µM, first compound 0.0316 µM
[26] = second compound 1 µM, first compound 0.1 µM
[27] = second compound 1 µM, first compound 0.316 µM
[28] = second compound 1 µM, first compound 1 µM
[29] = second compound 1 µM, first compound 3.16 µM
[30] = second compound 1 µM, first compound 10 µM
[31] = second compound 3.16 µM, first compound 0.0316 µM
[32] = second compound 3.16 µM, first compound 0.1 µM
[33] = second compound 3.16 µM, first compound 0.316 µM
[34] = second compound 3.16 µM, first compound 1 µM
[35] = second compound 3.16 µM, first compound 3.16 µM
[36] = second compound 3.16 µM, first compound 10 µM
[37] = second compound 10 µM, first compound 0.0316 µM
[38] = second compound 10 µM, first compound 0.1 µM
[39] = second compound 10 µM, first compound 0.316 µM
[40] = second compound 10 µM, first compound 1 µM
[41] = second compound 10 µM, first compound 3.16 µM
[42] = second compound 10 µM, first compound 10 µM
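Further: spheroids exposed to compounds for seven days before readout.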
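Wherever viability, T/C is given: 100% = DMSO vehicle control wells.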

Structure (SMILES): CNC(=O)c1ccc(Nc2nc(OC3CCCC3)c3c(-c4ccc5nc(C)oc5c4)c[nH]c3n2)c(OC)c1
viability, T/C (compound 0.0316 µM): 89.3% [middle of 4 runs]
viability, T/C (compound 1 µM): 101% [middle of 12 runs]
viability, T/C (compound 3.16 µM): 94.7% [middle of 12 runs]
viability, T/C (compound 10 µM): 101% [middle of 12 runs]
IC50 (compound alone, run of 09/19/2023): > 10000 nM

Structure (SMILES): C=CC(=O)N1CCN(c2nc(=O)n(-c3c(C)ccnc3C(C)C)c3nc(-c4c(O)cccc4F)c(F)cc23)C(C)C1 (stereo not given) + CN1CCN(c2cc(C(=O)Nc3cc4cc(-c5cnn(C)c5)ccc4cn3)ccn2)CC1
IC50 [1]: > 10000 nM
IC50 [2]: > 10000 nM
IC50 [3]: < 31.6 nM
IC50 [4]: < 31.6 nM
IC50 [5]: < 31.6 nM
IC50 [6]: < 31.6 nM
viability, T/C [7]: 128%
viability, T/C [8]: 130%
viability, T/C [9]: 121%
viability, T/C [10]: 138%
viability, T/C [11]: 159%
viability, T/C [12]: 128%
viability, T/C [13]: 128%
viability, T/C [14]: 122%
viability, T/C [15]: 132%
viability, T/C [16]: 160%
viability, T/C [17]: 162%
viability, T/C [18]: 121%
viability, T/C [19]: 20.6%
viability, T/C [20]: 21.9%
viability, T/C [21]: 20.1%
viability, T/C [22]: 24.2%
viability, T/C [23]: 25.9%
viability, T/C [24]: 18.4%
viability, T/C [25]: 1.67%
viability, T/C [26]: 1.68%
viability, T/C [27]: 2.05%
viability, T/C [28]: 2.47%
viability, T/C [29]: 2.38%
viability, T/C [30]: 1.47%
viability, T/C [31]: 1.63%
viability, T/C [32]: 3.15%
viability, T/C [33]: 2.36%
viability, T/C [34]: 2.16%
viability, T/C [35]: 3.18%
viability, T/C [36]: 4.16%
viability, T/C [37]: 0.96%
viability, T/C [38]: 1.09%
viability, T/C [39]: 2.11%
viability, T/C [40]: 1.48%
viability, T/C [41]: 4.19%
viability, T/C [42]: 1.94%

Structure (SMILES): CC(C)CC(NC(=O)C(Cc1ccccc1)NC(=O)c1cnccn1)B(O)O (stereo not given)
viability, T/C (compound 0.000949 µM): 96.3% and 107%
viability, T/C (compound 0.003 µM): 60.7% and 68.6%
viability, T/C (compound 0.00949 µM): 1.72% and 2.43%
viability, T/C (compound 0.03 µM): 2.65% and 0.78%
viability, T/C (compound 0.0949 µM): 0.47% and 0.54%
viability, T/C (compound 0.3 µM): 1.72% and 0.37%
IC50 (curve of compound): 3.7 nM and 4.15 nM

More lines, main results first:

IC50 [1]: < 31.6 nM
IC50 [2]: < 31.6 nM
IC50 [3]: 54.3 nM
IC50 [4]: 53.7 nM
IC50 [5]: 48.9 nM
IC50 [6]: 44.9 nM
Structure (SMILES): Nc1ccn(C2OC(CO)C(O)C2(F)F)c(=O)n1 (stereo not given) + CNC(=O)c1ccc(Nc2nc(OC3CCCC3)c3c(-c4ccc5nc(C)oc5c4)c[nH]c3n2)c(OC)c1
viability, T/C [7]: 50.8%
viability, T/C [8]: 36.9%
viability, T/C [9]: 27.4%
viability, T/C [10]: 34.7%
viability, T/C [11]: 39%
viability, T/C [12]: 34.4%
viability, T/C [13]: 57.3%
viability, T/C [14]: 33.6%
viability, T/C [15]: 26.9%
viability, T/C [16]: 36.3%
viability, T/C [17]: 36.4%
viability, T/C [18]: 34.7%
viability, T/C [19]: 63.4%
viability, T/C [20]: 34.5%
viability, T/C [21]: 32.2%
viability, T/C [22]: 29.6%
viability, T/C [23]: 39.5%
viability, T/C [24]: 37%
viability, T/C [25]: 65.3%
viability, T/C [26]: 32.6%
viability, T/C [27]: 23.9%
viability, T/C [28]: 29%
viability, T/C [29]: 36.4%
viability, T/C [30]: 28.7%
viability, T/C [31]: 63%
viability, T/C [32]: 24.2%
viability, T/C [33]: 26.2%
viability, T/C [34]: 24.3%
viability, T/C [35]: 34.3%
viability, T/C [36]: 33.6%
viability, T/C [37]: 60.2%
viability, T/C [38]: 26.9%
viability, T/C [39]: 21.4%
viability, T/C [40]: 22.6%
viability, T/C [41]: 26.5%
viability, T/C [42]: 31.5%

IC50 (curve of compound): 20.8 nM and 12.6 nM
Structure (SMILES): CCc1c2c(nc3ccc(O)cc13)-c1cc3c(c(=O)n1C2)COC(=O)[C@]3(O)CC
viability, T/C (compound 0.00316 µM): 54.7% and 48.2%
viability, T/C (compound 0.01 µM): 61.4% and 56.1%
viability, T/C (compound 0.0316 µM): 45% and 44.2%
viability, T/C (compound 0.1 µM): 29% and 22.6%
viability, T/C (compound 0.316 µM): 16.5% and 15.5%
viability, T/C (compound 1 µM): 4.57% and 6.27%

IC50 [1]: 9990 nM
IC50 [2]: > 10000 nM
IC50 [3]: 9640 nM
IC50 [4]: > 10000 nM
IC50 [5]: > 10000 nM
IC50 [6]: 9060 nM
Structure (SMILES): CCCS(=O)(=O)Nc1ccc(F)c(C(=O)c2c[nH]c3ncc(-c4ccc(Cl)cc4)cc23)c1F + CNC(=O)c1ccc(Nc2nc(OC3CCCC3)c3c(-c4ccc5nc(C)oc5c4)c[nH]c3n2)c(OC)c1
viability, T/C [7]: 117%
viability, T/C [8]: 104%
viability, T/C [9]: 113%
viability, T/C [10]: 105%
viability, T/C [11]: 93.5%
viability, T/C [12]: 49.5%
viability, T/C [13]: 102%
viability, T/C [14]: 101%
viability, T/C [15]: 102%
viability, T/C [16]: 111%
viability, T/C [17]: 115%
viability, T/C [18]: 51.6%
viability, T/C [19]: 99.4%
viability, T/C [20]: 105%
viability, T/C [21]: 87.2%
viability, T/C [22]: 100%
viability, T/C [23]: 83.5%
viability, T/C [24]: 48.6%
viability, T/C [25]: 96.5%
viability, T/C [26]: 104%
viability, T/C [27]: 94.8%
viability, T/C [28]: 99.3%
viability, T/C [29]: 88.4%
viability, T/C [30]: 57.1%
viability, T/C [31]: 86.7%
viability, T/C [32]: 83.9%
viability, T/C [33]: 91.7%
viability, T/C [34]: 102%
viability, T/C [35]: 83.3%
viability, T/C [36]: 55%
viability, T/C [37]: 89%
viability, T/C [38]: 82.5%
viability, T/C [39]: 92.5%
viability, T/C [40]: 99.6%
viability, T/C [41]: 67.5%
viability, T/C [42]: 48.4%
